Data set [1] addresses T1, PgQC (Porphyromonas gingivalis, UniProt Q7MT37). Put plainly: Residual QC activity in presence of metal chelators. It is filed as biochemical. Set-up: His-tag (pET28a, thrombin-cleavable) (N, cleaved yes); made in house; host or cells: E. coli Rosetta(DE3)pLysS. Particulars: Fig. S2. On the procedure: (§1) To test whether QC is a metalloenzyme, the turnover of H-Gln-AMC at a concentration corresponding to 0.5 KM was investigated in the presence of the metal chelators 1,10- phenanthroline, dipicolinic acid, and EDTA. The fluorometric activity assay was performed as described above, except for the presence of 1% (v/v) DMSO in the case of 1,10-phenanthroline or dipicolinic acid. Finally, the residual QC activity was determined at steady state, whereas QC without chelators and ± 1% DMSO served as positive control.
Supplementary Figure 2: Inhibition of bacteroidal QC activity by metal chelators: ( A) ED TA ,
(B) dipicolinic acid and (C) 1,10-phenantroline. 250 µM H-Gln-AMC and increasing chelator
(§2) concentrations were used to investigate the inhibitory effect on QC activity. Bars indicate residual
(§3) QC activity following initiation of the reaction by adding 5 nM QC (red: PgQC; green: PiQC; blue:
(§4) TfQC). All measurements were performed at 30°C as described in the text.
(§5) (1 picture or pasted object on this page, not shown here)

Data set [2] deals with T2, PiQC (Prevotella intermedia, UniProt A0AAD1F671). It counts as biochemical. Particulars: for Effect of chelator on QC activity: PiQC, Fig. S2. On the procedure: as §1
T2 sequence (A0AAD1F671 24-340 limits assumed): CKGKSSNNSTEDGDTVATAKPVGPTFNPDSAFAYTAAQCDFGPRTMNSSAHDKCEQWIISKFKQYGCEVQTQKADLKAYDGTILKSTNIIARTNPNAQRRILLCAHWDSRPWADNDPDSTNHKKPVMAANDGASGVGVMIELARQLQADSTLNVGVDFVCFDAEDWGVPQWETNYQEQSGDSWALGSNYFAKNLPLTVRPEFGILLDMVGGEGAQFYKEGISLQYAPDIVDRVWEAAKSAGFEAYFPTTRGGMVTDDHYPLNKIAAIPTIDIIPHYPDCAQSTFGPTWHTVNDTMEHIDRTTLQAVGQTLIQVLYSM
(§6) 250 µM H-Gln-AMC and increasing chelator
as §2, §3, §4, §5

Data set [3] concerns the target T3, TfQC (Tannerella forsythia, UniProt G8UMP8). It is filed as biochemical. The following applies: Fig. S2. On the procedure:
as §1, §6, §2, §3, §4, §5

For data set [4], the target named is T1, PgQC. In words: QC inhibition assay with fluorogenic substrate H-Gln-AMC (Ki). It is filed as biochemical. The arrangement: His-tag (pET28a, thrombin-cleavable) (N, cleaved yes); made in house; host or cells: E. coli Rosetta(DE3)pLysS. As to the method:
(§7) Inhibitory constants were determined using concentrations of H-Gln-AMC varying from 1/4 KM to 2 KM and a final concentration of bacterial QC in a range between 25 nM and 50 nM. Progress curves were fitted to the general equation for competitive inhibition.

Data set [5] addresses T2, PiQC. Described as above. It counts as biochemical. Particulars: 1% DMSO, pH 8.0, 30 °C. As to the method:
as §7

The target in data set [6] is T3, TfQC. The data set is described as above. It is filed as biochemical. The following applies: 1% DMSO, pH 8.0, 30 °C. On the procedure:
as §7

For data set [7], the target named is T4, HsQC (Homo sapiens, UniProt Q16769). The description is as above. It counts as biochemical.
T4 sequence (Q16769 29-361): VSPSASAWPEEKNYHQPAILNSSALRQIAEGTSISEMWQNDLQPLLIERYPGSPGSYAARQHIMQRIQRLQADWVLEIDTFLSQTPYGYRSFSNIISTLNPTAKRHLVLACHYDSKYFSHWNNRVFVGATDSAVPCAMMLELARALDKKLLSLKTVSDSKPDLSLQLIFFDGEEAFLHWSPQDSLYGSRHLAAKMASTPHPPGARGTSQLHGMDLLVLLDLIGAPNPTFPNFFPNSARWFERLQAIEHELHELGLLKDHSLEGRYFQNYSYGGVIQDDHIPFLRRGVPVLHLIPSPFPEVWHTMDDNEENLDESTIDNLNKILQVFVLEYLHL
Data set [8] has as its target T2, PiQC. It counts as biochemical. On the procedure: (§8) QC activity was evaluated using the fluorogenic substrate H-Gln-AMC as described previously ([43]). Measurements were performed at different concentrations of fluorogenic substrate and 0.5 U pyroglutaminyl aminopeptidase in 50 mM Tris-HCl, 50 mM NaCl at pH 8.0. After 10 min incubation time at 30 °C, the reaction was initiated by addition of approximately 50 nM QC to a final volume of 125 μl reaction mixture. QC activity was calculated from a standard curve of the fluorophore AMC at assay conditions using excitation/emission wavelengths of 380/460 nm. All measurements were carried out in 96-well microtiter plates (Fisher Scientific) at 30 °C using the FluoStar Optima (BMG Labtech). All kinetic data were evaluated using GraFit software (Version 7, Erithacus software Ltd).
(§9) Supplementary Figure 1: QC activity measurements for bacteroidal QC cataly zed cyclization of the fluorogenic substrate H-Gln-AMC. (A) v/S-characteristics and Lineweaver-Burk plots for PgQC (red circles), TfQC (green triangles) and PiQC (blue squares). QC activity measurements were performed in 50 mM Tris-HCl, pH 8.0 and 50 mM NaCl at 30°C. Kinetic data were evaluated using GraFit software (Version 7, Erithacus software Ltd., Horley, UK). (B) pH dependence of PgQC, TfQC, and PiQC activities; colors and sy mbols as in (A). The specificity constants kcat/KM were determined under first-order rate law conditions with substrate concentrations of 1/10 KM.
(§10) Measurements were carried out at 30°C in buffer consisting of 0.1 M Tris-HCl, 0.05 MES, 0.05 mM acetic acid and 0.05 mM NaCl.. […]

Data set [9] has as its target T4, HsQC. Set-up: method as in Schilling et al. ([44]). The following applies: ref Schilling et al. ([44]); cited from earlier work.
For data set [10], the target named is T3, TfQC. In words: Kinetics of cyclization of H-Gln-AMC. It is filed as biochemical. On the procedure:
as §8, §9, §10

The target in data set [11] is T1, PgQC. As to the method:
as §8, §9, §10

Substrate in data set [12]: CC[C@H](C)[C@H](NC(=O)[C@H](CO)NC(=O)[C@H](CC(=O)O)NC(=O)[C@@H]1CCCN1C(=O)[C@@H](NC(=O)[C@@H](NC(=O)[C@H](CO)NC(=O)[C@@H](N)CCC(N)=O)C(C)C)C(C)C)C(=O)NCC(=O)N[C@@H](CCCNC(=N)N)C(N)=O
Put plainly: Conversion of N-termini of putative natural substrates, spectrophotometric assay with glutamate dehydrogenase. It is filed as biochemical, Porphyromonas gingivalis. The following applies: other: PgQC, pH 8.0, 30 °C. As to the method:
(§11) For evaluation of possible physiological substrates, PgQC activity was determined spectrophotometrically by using glutamate dehydrogenase as auxiliary enzyme described previously ([44]). […] After 10-min incubation time at 30 °C, reactions were initiated by addition of approximately 115 nM PgQC to a final volume of 250 μl reaction mixture. QC turnover of substrates was monitored by a decrease of absorption at 340 nm and enzyme activity was determined from a standard curve of NH4Cl at assay conditions.

Substrate in data set [13]: CC[C@H](C)[C@H](NC(=O)[C@@H](NC(=O)[C@H](CC(=O)O)NC(=O)[C@@H](N)CCC(N)=O)C(C)C)C(=O)N[C@@H](CCCNC(=N)N)C(=O)N1CCC[C@H]1C(=O)N[C@@H](Cc1c[nH]c2ccccc12)C(=O)N[C@@H](CO)C(=O)N[C@@H](CC(C)C)C(=O)N[C@@H](CCC(N)=O)C(N)=O
The description is as above. Particulars: other: PgQC; determined under first-order-rate law conditions, [S] << KM; pH 8.0; 30.0 °C. It is filed as biochemical, Porphyromonas gingivalis. As to the method: as §11

Substrate in data set [14]: CC(C)[C@H](NC(=O)[C@H](CO)NC(=O)[C@H](C)NC(=O)[C@H](CC(N)=O)NC(=O)[C@H](CO)NC(=O)[C@H](CCC(=O)O)NC(=O)[C@@H](N)CCC(N)=O)C(=O)N[C@@H](CCCNC(=N)N)C(=O)N1CCC[C@H]1C(=O)N[C@@H](CO)C(N)=O
Described as above. It counts as biochemical, Porphyromonas gingivalis. The following applies: other: PgQC; determined under first-order-rate law conditions, [S] << KM; pH 8.0; 30.0 °C. As to the method: as §11

Substrate in data set [15]: CC(C)[C@H](NC(=O)[C@H](CCC(N)=O)NC(=O)[C@@H](N)CCC(N)=O)C(=O)N[C@@H](C)C(=O)N[C@@H](C)C(=O)N[C@@H](C)C(=O)N[C@@H](CC(=O)O)C(=O)N1CCC[C@H]1C(=O)N[C@@H](CO)C(=O)N1CCC[C@H]1C(N)=O
The description is as above. It counts as biochemical, Porphyromonas gingivalis. The following applies: other: PgQC; determined under first-order-rate law conditions, [S] << KM; pH 8.0; 30.0 °C. As to the method: as §11

Substrate in data set [16]: C[C@H](NC(=O)[C@H](CCC(=O)O)NC(=O)[C@H](Cc1ccc(O)cc1)NC(=O)[C@@H](NC(=O)[C@H](CCCNC(=N)N)NC(=O)[C@H](CC(N)=O)NC(=O)[C@H](CCCNC(=N)N)NC(=O)[C@H](CO)NC(=O)[C@@H](N)CCC(N)=O)[C@@H](C)O)C(=O)N[C@@H](Cc1ccc(O)cc1)C(N)=O
The description is as above. It counts as biochemical, Porphyromonas gingivalis. The following applies: other: PgQC, pH 8.0, 30 °C. On the procedure: as §11

Setting [17] is: H-Gln-AMC substrate, 1% DMSO, pH 8.0, 30 °C, read-out: Inhibition of QC (Ki) PgQC.

Where two headings read alike, the source gives them in different places.

T3 sequence (G8UMP8 entry or part of it): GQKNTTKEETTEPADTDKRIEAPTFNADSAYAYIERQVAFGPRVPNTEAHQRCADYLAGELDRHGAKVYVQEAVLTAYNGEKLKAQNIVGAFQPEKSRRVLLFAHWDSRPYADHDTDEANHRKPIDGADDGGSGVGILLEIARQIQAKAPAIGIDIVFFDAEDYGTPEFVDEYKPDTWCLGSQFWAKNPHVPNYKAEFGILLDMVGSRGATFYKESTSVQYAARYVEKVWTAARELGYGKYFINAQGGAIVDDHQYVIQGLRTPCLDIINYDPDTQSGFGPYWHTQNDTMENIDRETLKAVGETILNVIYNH

On to `c1cnc2c(c1)ccc1cccnc12` [1,10-phenanthroline], for which the “Effect of chelator on QC activity” value on PgQC [1], on PiQC [2] and at TfQC [3] was “strong inhibitory activity” in each case. Also, the “Sensitivity of PiQC to chelator” value at PiQC [2] (PiQC compared with other bacteroidal QCs) is listed as “particularly sensitive”.
A word on the Ki: it is a measure of affinity in units of concentration, obtained from inhibition or displacement. As to `c1ccc(Cn2ccnc2)cc1` [1-Benzylimidazol, 1-benzylimidazole], the “Mode of inhibition of PgQC” value on PgQC [4] (Fig. S3) is “competitive manner”. Moreover, the Ki on PgQC [4] (setting [17]) was 10.4 ± 0.3 µM; on PgQC [4] (stated in text for the bacteroidal QCs in general, read-out: Estimated Ki, highest efficacy), ~10 µM; at PiQC [5] it was 13.5 ± 2.2 µM; on TfQC [6], 6.45 ± 0.33 µM; at HsQC [7] it was 16.8 ± 3.5 µM.
Take `c1ccc2[nH]cnc2c1` [Benzimidazole, benzimidazole]: the Ki on PgQC [4] (setting [17]) amounted to 32.1 ± 1.4 µM; at PiQC [5] it was 85.5 ± 4.7 µM; at TfQC [6] it was 170 ± 1 µM; on HsQC [7] it was 318 ± 23 µM.
For `O=C(O)CN(CCN(CC(=O)O)CC(=O)O)CC(=O)O` [EDTA], the “Effect of chelator on QC activity” value at PgQC [1], on PiQC [2] and at TfQC [3] was “little influence” throughout.
Usually Km stands for the concentration of substrate that gives half-maximal velocity. The kcat is the maximal rate divided by the concentration of active sites. Consider `Cc1cc(=O)oc2cc(NC(=O)[C@@H](N)CCC(N)=O)ccc12` [H-Gln-AMC], for which the “specificity constant kcat/KM relative to that of HsQC” value on PiQC [8] is recorded as ~13%; at TfQC [10], “approximately 4%”; at PgQC [11] it was ~9%. In addition, the Km was 645 ± 7 µM on PiQC [8] (pH 8.0, 30 °C); 54 ± 2 µM at HsQC [9]; 1090 ± 30 µM at TfQC [10] (pH 8.0, 30 °C); 510 ± 13 µM on PgQC [11] (pH 8.0, 30 °C). In addition, the kcat on PiQC [8] (pH 8.0, 30 °C) was 8.51 ± 0.37 s⁻¹; at HsQC [9] it was 5.3 ± 0.1 s⁻¹; at TfQC [10] (pH 8.0, 30 °C), 4.49 ± 0.22 s⁻¹; on PgQC [11] (pH 8.0, 30 °C) it was 4.71 ± 0.22 s⁻¹. The “KM value higher compared with HsQC” value on TfQC [10] is listed as ~20 fold.
With `c1c[nH]cn1` [Imidazole, imidazole], the Ki at PgQC [4] (setting [17]) amounted to 349 ± 23 µM; on PiQC [5], 288 ± 11 µM; at TfQC [6] it was 280 ± 15 µM.
In the case of `O=C(O)c1cccc(C(=O)O)n1` [dipicolinic acid], the “Effect of chelator on QC activity” value on PgQC [1], on PiQC [2] and at TfQC [3] was “strong inhibitory activity” in each case.

B1: PgQC (Porphyromonas gingivalis W83) (protein)
chain: NGNNTSETQGDRTEQAETVQADLFSADSAYTFVQRQVNFGPRIPGTAPHRACGDWLVATLRSFGAAVQEQTAEIKAHDGTMLPMRNIIASYRPEATGRMLLMAHWDTRPVCDQDANPAMHTETFDGADDGGSGVGVLLEIARYLGQQKDLGMGIDIVFFDTEDYGSYGDDESWCLGSQYWSRNPHVAGYKAEAGILLDMVGAKGATFYWEYFSKSYAPGLISAVWQTAAALGYGNYFIQADGGALTDDHVPVIKNLGIPCIDIINYSSKNEHGFGDHWHTQRDNMQIIDKNVLDAVGETVIRYLDEQVKAASH
A word on the kcat/Km: it is the second-order rate constant that governs catalysis at low substrate concentration. Regarding B1, the Km was determined as 492.5 ± 26 µM in data set [12] and 203.7 ± 5.1 µM in [16]. In addition, the kcat in data set [12] stood at 7 ± 0.66 s⁻¹; in data set [16], 13.3 ± 1.6 s⁻¹. Further, the kcat/Km in [12] amounted to 14300 ± 600 M⁻¹ s⁻¹; in [13], 18600 ± 100 M⁻¹ s⁻¹; in data set [14] it was 4300 ± 100 M⁻¹ s⁻¹; in data set [15], 12500 ± 1900 M⁻¹ s⁻¹; in [16], 65100 ± 6000 M⁻¹ s⁻¹.

The values are drawn from paper PMC7948796, “Mammalian-like type II glutaminyl cyclases in Porphyromonas gingivalis and other oral pathogenic bacteria as targets for treatment of periodontitis” (The Journal of Biological Chemistry, 2021).
